Reference: US4937346A, “Phenyl-azacykloalkanes” (Carlsson; Per Arvid Emil, priority 1979, dated 1990)

How the values were obtained:
DA autoreceptors = experiment: Effect on spontaneous locomotor activity in the rat; assay type: in vivo; conditions: for Motor activity: 0-15 min
Description: 4. Effect on spontaneous locomotor activity in the rat.
Untreated animals exposed to a new environment display an initial high motor activity which then gradually declines over a period of time. Administration of DA-receptor agonists (e.g. apomorphine) in doses where preferential autoreceptor stimulation is likely to occur, causes a depression of the spontaneous motility mentioned above, considered to be due to the DA autoreceptor-mediated impairment of central DA transmission.
Rats (150-300 g) were injected subcutaneously with several doses of compounds 4 and after 5 minutes they were individually placed in motility boxes ("M/P 40 Fc Electronic Motility Meter". Motron Products, Stockholm) and the motor activity (0-30 min.) was quantified. […] Moreover, there seems to be a correlation between the decrease in spontaneous locomotion and the degree of antagonism of the GBL-induced increase in DA synthesis (cf. 3 above) in the limbic areas of rat brain exerted by compound 4, the per cent decrease of motor activity being roughly 0.6 times the per cent reversal of GBL-induced increase in DA-synthesis rate.

[1] = tested on: central postsynaptic DA-receptor; experiment: Locomotor activity in reserpine-pretreated rats, comparison of compound 4 with two known dopaminergic agonists; assay type: in vivo, rat
Method: Rats (150-300 g) pretreated with reserpine (10 mg/ kg i.p., 6 h before) were given either phys. saline, compound 4 (100 μmol/kg), N-n-propyl-3-(3,4-dihydroxyphenyl)piperidine (100 μmol/kg) or apomorphine ([…]) subcutaneously and the locomotor activity (accumulated counts 0-60 min.) was quantified by means of Motron boxes (see under 4 above).

[2] = tested on: postsynaptic dopamine receptor; experiment: Gross behavioral observations for postsynaptic dopamine receptor activity; assay type: in vivo, rat; conditions: gross behavioural observations, any dose tested
Description: Rats (150-300 g) pretreated with reserpine were given the compounds under evaluation. Gross behavioral observations (changes in motility, stereotypies etc.) were made in order to evaluate possible postsynaptic dopamine receptor activity. Subsequent administration of NSD 1015, decapitation, brain dissection (corpora striate and the limbic fore-brain), homogenization, centrifugation, ion-exchange chromatography and spectrofluorimetric measurements (all as described in detail by Wikstrom et al., in J. Med. Chem. 21, 864-867, 1978, and references cited therein), gave the actual Dopa levels. Several doses (n=4-6) were tested in order to obtain dose-response curves for each compound and brain area. The dose of a compound producing a half-maximal decrease in the Dopa level in the rat brain part was then estimated.

[3] = tested on: dopaminergic receptors (presynaptic and postsynaptic); conditions: racemic mixtures; cited from earlier work

Structure (SMILES): Br.CCCN1CCCC(c2cccc(O)c2)C1 (racemic) [Compound 4, N-n-propyl-3-(3-hydroxyphenyl)piperidine hydrobromide]
- Motor activity (DA autoreceptors; glucose i.p. + compound 4 0.5 mg/kg s.c., n=5): 43 ± 9 acc. counts
- Motor activity (DA autoreceptors; haloperidol 0.02 mg/kg i.p. + compound 4 0.5 mg/kg s.c., n=7): 80 ± 10 acc. counts
- reversal of sedative effect by haloperidol (DA autoreceptors; haloperidol 0.02 mg/kg i.p. 30 min before, compound 4 0.5 mg/kg): at least partly reversed the sedative effect
- per cent decrease of motor activity relative to per cent reversal of GBL-induced increase in DA-synthesis rate (DA autoreceptors; limbic areas, correlation): roughly 0.6 times
- locomotor stimulation (DA autoreceptors; regardless of the dose used): No locomotor stimulation was ever seen
- maximal decrease of motor activity from control values (DA autoreceptors; s.c., 0-30 min, at about 8 mg/kg): 75%
- dose at which maximal effect is attained (DA autoreceptors; s.c., 75% decrease from control values): about 8 mg/kg
- dose dependence of motor activity effect (DA autoreceptors; s.c., several doses): clear dose-dependent decrease of the initial high motor activity
- Motor activity ([1]; 0-60 min postinj., 100 μmol/kg s.c.): 55 ± 4 acc. counts
- central postsynaptic DA-receptor stimulation / motor response ([1]; s.c.): failed to elicit a motor response that differed more than slightly from control values
- postsynaptic DA-receptor activation [2]: selectivity for the autoreceptors
- activation of classical postsynaptic dopaminergic receptors [3]: no concomitant activation of the classical postsynaptic dopaminergic receptors could be detected
